For three compounds, IC50 results are on record in US20170022171A1, “2,5-DISUBSTITUTED CYCLOPENTANECARBOXYLIC ACIDS AND THEIR USE” (Bayer Pharma Aktiengesellschaft, priority 2014, published 2017).

pIC50: −log10 of the molar value.

Type in all cases: biochemical
For one experiment, the target named is T1, MMP-10 (Homo sapiens, UniProt P09238).
T1 construct: purchased R&D Systems 910-MP
The experiment in a line: In vitro MMP-10 inhibition test. The essentials: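 APMA-activated recombinant MMP-10 (final e.g. 2 nM) with quenched Mca-Arg-Pro-Lys-Pro-Val-Glu-Nval-Trp-Arg-Lys(Dnp)-NH2 substrate (final e.g. 10 μM) in 50 mM Tris/HCl pH 7.5, 10 mM CaCl2, 150 mM NaCl, 0.05% Brij-35. Fluorescence (ex 320/em 410 nm) followed e.g. 120 min at 32 °C. IC50 at 50% signal.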

The target in another experiment is T2, MMP-7 (Homo sapiens, UniProt P09237).
T2 construct: purchased R&D Systems 907-MP
T2 sequence (P09237 95-267): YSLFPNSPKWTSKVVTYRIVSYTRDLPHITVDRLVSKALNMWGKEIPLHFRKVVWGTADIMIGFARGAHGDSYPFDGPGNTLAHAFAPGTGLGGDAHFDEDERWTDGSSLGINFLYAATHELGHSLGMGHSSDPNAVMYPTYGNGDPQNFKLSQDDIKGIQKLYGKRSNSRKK
Kind of experiment: In vitro MMP-7 inhibition test. The essentials:
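APMA-activated recombinant MMP-7 (e.g. 0.5 nM final) in Tris/HCl pH 7.5 with CaCl2, NaCl and Brij-35; started with quenched fluorogenic Mca-PLGL-Dpa(Dnp)-AR-NH2 substrate (e.g. 10 μM final). Fluorescence (ex 320/em 410 nm) followed e.g. over 120 min at 32° C; IC50 is the concentration giving 50% signal.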

The next experiment concerns the target T3, MMP-2 (Homo sapiens, UniProt P08253).
T3 construct: purchased R&D Systems 902-MP
T3 sequence (P08253 110-660): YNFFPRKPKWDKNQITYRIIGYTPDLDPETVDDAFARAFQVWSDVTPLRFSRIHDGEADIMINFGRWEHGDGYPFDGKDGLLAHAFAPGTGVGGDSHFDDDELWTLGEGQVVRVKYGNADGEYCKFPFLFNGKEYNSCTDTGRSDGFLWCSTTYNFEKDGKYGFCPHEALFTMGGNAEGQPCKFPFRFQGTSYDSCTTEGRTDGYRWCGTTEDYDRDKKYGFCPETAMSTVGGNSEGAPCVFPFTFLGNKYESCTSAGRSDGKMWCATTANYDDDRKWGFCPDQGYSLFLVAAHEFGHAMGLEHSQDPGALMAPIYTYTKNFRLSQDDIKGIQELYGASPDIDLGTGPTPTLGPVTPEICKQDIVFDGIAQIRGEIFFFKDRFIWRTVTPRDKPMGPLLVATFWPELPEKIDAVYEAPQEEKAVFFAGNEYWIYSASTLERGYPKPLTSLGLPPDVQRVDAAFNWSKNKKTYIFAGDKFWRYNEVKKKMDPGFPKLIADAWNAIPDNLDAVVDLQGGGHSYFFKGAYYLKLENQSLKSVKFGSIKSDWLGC
The experiment in a line: In vitro MMP-2 inhibition test. The essentials: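 APMA-activated recombinant MMP-2 (final e.g. 2 nM) in 50 mM Tris/HCl pH 7.5, 10 mM CaCl2, 150 mM NaCl, 0.05% Brij-35, with compound in DMSO. Started with quenched Mca-PLGL-Dpa(Dnp)-AR-NH2 (e.g. 10 μM); fluorescence (ex 320/em 410 nm) followed e.g. 120 min at 32° C.; IC50 at 50% signal.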

In a further experiment the target is T4, MMP-9 (Homo sapiens, UniProt P14780).
T4 construct: purchased R&D Systems 911-MP
T4 sequence (P14780 107-707 limits assumed): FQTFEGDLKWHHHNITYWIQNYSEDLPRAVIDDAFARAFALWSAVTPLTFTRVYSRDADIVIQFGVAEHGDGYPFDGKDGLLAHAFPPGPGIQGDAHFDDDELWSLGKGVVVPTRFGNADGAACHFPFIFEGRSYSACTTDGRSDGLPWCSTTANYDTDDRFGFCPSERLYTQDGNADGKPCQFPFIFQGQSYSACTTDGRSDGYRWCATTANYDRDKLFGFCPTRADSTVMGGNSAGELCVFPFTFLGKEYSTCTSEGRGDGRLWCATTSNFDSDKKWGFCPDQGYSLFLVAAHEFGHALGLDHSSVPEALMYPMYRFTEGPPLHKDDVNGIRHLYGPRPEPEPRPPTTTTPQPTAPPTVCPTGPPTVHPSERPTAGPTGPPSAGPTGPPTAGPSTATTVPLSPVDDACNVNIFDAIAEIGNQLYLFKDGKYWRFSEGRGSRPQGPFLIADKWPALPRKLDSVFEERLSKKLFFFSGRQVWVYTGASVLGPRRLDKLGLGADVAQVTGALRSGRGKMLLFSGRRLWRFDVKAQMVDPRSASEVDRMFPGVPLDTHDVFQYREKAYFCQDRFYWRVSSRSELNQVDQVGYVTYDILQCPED
The experiment in a line: In vitro MMP-9 inhibition test. The essentials: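 Recombinant MMP-9 was APMA-activated and used at e.g. 0.1 nM final in 50 mM Tris/HCl pH 7.5, 10 mM CaCl2, 150 mM NaCl, 0.05% Brij-35, with compound at e.g. 1 nM to 30 μM. Quenched Mca-Pro-Leu-Gly-Leu-Dpa(Dnp)-Ala-Arg-NH2 substrate (e.g. 10 μM) was followed by fluorescence (ex 320/em 410 nm), e.g. 120 min at 32 °C. IC50 corresponds to 50% signal.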

T1 sequence (P09238 99-476): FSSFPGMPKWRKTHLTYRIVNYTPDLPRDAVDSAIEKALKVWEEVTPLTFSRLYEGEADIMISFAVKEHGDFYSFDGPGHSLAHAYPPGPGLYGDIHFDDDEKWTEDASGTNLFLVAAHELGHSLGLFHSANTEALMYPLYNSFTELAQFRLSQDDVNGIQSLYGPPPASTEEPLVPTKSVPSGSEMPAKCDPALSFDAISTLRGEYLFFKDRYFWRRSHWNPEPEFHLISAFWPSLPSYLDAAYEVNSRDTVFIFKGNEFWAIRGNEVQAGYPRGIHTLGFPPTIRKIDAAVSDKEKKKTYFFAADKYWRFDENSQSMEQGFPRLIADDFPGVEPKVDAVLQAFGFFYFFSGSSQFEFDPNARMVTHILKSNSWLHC

As for `O=C(O)[C@H]1[C@H](Cn2nnc3ccc(C(F)(F)F)cc3c2=O)CC[C@@H]1C(=O)c1ccc(OCc2ccc(F)cc2)cc1` (racemic) [Example 12, (+/−)-(1RS,2RS,5SR)-2-{4-[(4-Fluorobenzyl)oxy]benzoyl}-5-{[4-oxo-6-(trifluoromethyl)-1,2,3-benzotriazin-3(4H)-yl]methyl}cyclopentanecarboxylic acid], the pIC50 (as a rule, −log10 of the IC50, conventionally taken in molar units) was 7.82 against MMP-10, 6.80 against MMP-7, 7.38 at MMP-2 and 8.23 on MMP-9.
For `O=C(O)[C@H]1[C@H](Cn2nnc3ccccc3c2=O)CC[C@@H]1C(=O)c1ccc(OCc2cccc(Cl)c2)cc1` (racemic) [Example 2, (+/−)-(1RS,2RS,5SR)-2-{4-[(3-Chlorobenzyl)oxy]benzoyl}-5-[(4-oxo-1,2,3-benzotriazin-3(4H)-yl)methyl]cyclopentanecarboxylic acid], in that order: 6.51, 5.28, 6.54 and 6.32.
For the compound `CCCCOc1ccc(C(=O)[C@@H]2CC[C@H](Cn3nnc4ccc(C(F)(F)F)cc4c3=O)[C@H]2C(=O)O)cc1` (single isomer, unassigned) [Example 67, (+)-(1RS,2RS,5SR)-2-(4-Butoxybenzoyl)-5-{[4-oxo-6-(trifluoromethyl)-1,2,3-benzotriazin-3(4H)-yl]methyl}cyclopentanecarboxylic acid], the pIC50 against MMP-10 is 7.85; at MMP-7, 6.92; against MMP-2, 6.57; against MMP-9 it was 7.21.
